Values of other authors as cited in patent US6878388B1, “Vanadium compounds for treating proliferative cell disorders” (Parker Hughes Institute, priority 2000, dated 2005).

Key:
tumor cell growth = details: Kopf-Maier et al. 1983; cited from earlier work
pharyngonasal cancer = details: single assay, Sakurai et al. 1995; cited from earlier work

| Compound | effect on tumor cell growth (tumor cell growth) | activity against pharyngonasal cancer (pharyngonasal cancer) |
| --- | --- | --- |
| Vanadocene dichloride [VDC] | arrest tumor cell growth |  |
| O.O.O=S(=O)([O-])[O-].[O]=[V+2].c1cnc2c(c1)ccc1cccnc12 [[VO(Phen)(H2O)2](SO4), (diaqua)(1,10-phenanthroline)oxovanadium (IV) sulfate] |  | active |
